# Results from patent publication US7160898B2, “Pharmacological treatment for sleep apnea” (Board of Trustees of The University of Illinois, priority 2002, dated 2007).
# Entries after “also recorded” stand apart in the source; their conditions may differ.
# Tests used:
# cardiovascular variables = assay: Radiotelemetry of blood pressure and heart period after GR38032F (Example 2); type: in vivo, rat (Sprague-Dawley); details: 1 mg/kg i.p.
# From the text: After surgery, all animals were allowed to recover for one week before being subjected to another surgery that involved implantation of a radiotelemetry transmitter (TA11-PXT, Data Sciences International, St. Paul, Minn.) for monitoring blood pressure (BP) and heart period (HP), estimated as pulse interval. After the animals were anesthetized (as described above), the hair from the subxiphoid space to the pelvis was removed. The entire area was scrubbed with iodine and rinsed with alcohol and saline. A 4–6 cm midline abdominal incision was made to allow good visualization of the area from the bifurcation of the aorta to the renal arteries. A retractor was used to expose the contents of the abdomen and the intestine was held back using saline moistened gauze sponges. The aorta was dissected from the surrounding fat and connective tissues using sterile cotton applicators. A 3-0 silk suture was placed beneath the aorta and traction was applied to the suture to restrict the blood flow. Then the implant (TA11-PXT) was held by forceps while the aorta was punctured just cranial to the bifurcation using a 21-gauge needle bent at the beveled end. The tip of the catheter was inserted under the needle using the needle as a guide until the thin-walled BP sensor section was within the vessel. Finally, one drop of tissue adhesive (Vetbond®, 3M, Minneapolis, Minn.) was applied to the puncture site and covered with a small square of cellulose fiber (approximately 5 mm^2) so as to seal the puncture after catheter insertion. The radio implant was attached to the abdominal wall by 3-0 silk suture, and the incision was closed in layers. After the second surgery, animals were again allowed a one week recovery period prior to administration of the serotonin receptor antagonist and subsequent physiological recording.
# (§1) Physiological parameters (see below) from each animal were recorded on 2 occasions in random order, with recordings for an individual animal separated for at least 3 days. Fifteen minutes prior to each recording each animal received a systemic injection (1 ml/kg intraperitoneal bolus injection) of either saline (control) or 1 mg/kg of ondansetron (GR38032F; 1,2,3,9-tetrahydro-9-methyl-3-[(2-methylimidazol-1-yl)methyl]carbazole-4-one, hydrochloride, dihydrate; Glaxo Wellcome, Inc., Research Triangle Park, N.C.). Polygraphic recordings were made from hours 10:00–16:00.
# Similar software (Experimenters' Workbench; Datawave Technologies, Longmont, Colo.) was employed to analyze the blood pressure waveform; for each beat of each recording, systolic (SBP) and diastolic (DBP) blood pressures and pulse interval were measured. The pulse interval provided a beat by beat estimate of HP. Mean BP (MBP) was estimated according to the weighted average of SBP and DBP for each beat: MBP=DBP+(SBP−DBP)/3. The parameters for each beat were also classified according to the sleep/wake state and recording hour during which they occurred.
# [1] = test system: normalized minute ventilation; assay: Plethysmographic minute ventilation after GR38032F (Example 2); type: in vivo, rat (Sprague-Dawley); details: 1 mg/kg i.p., 6 recording hours, vs control; hydrochloride, dihydrate
# Protocol: as §1
# Respiration was recorded by placing each animal, unrestrained, inside a single chamber plethysmograph (PLYUNIR/U; Buxco Electronics, Sharon, Conn.; dimension 6 in.×10 in.×6 in.) ventilated with a bias flow of fresh room air at a rate of 2 L/min. […]
# An accepted physiological animal model [rat; Monti, et al., Pharamcol. […] More specifically, sleep apneas, defined as cessation of respiratory effort for at least 2.5 seconds, were scored for each recording session and were associated with the stage of sleep in which they occurred: NREM or REM sleep. […] The events detected represent central apneas because decreased ventilation associated with obstructed or occluded airways would generate an increased plethysmographic signal, rather than a pause. […]
structure (smiles),measurement,setting,value
"Cc1nccn1CC1CCc2c(c3ccccc3n2C)C1=O.Cl.O.O (centres unmarked) [GR38032F, 1,2,3,9-tetrahydro-9-methyl-3-[(2-methylimidazol-1-yl)methyl]carbazole-4-one, hydrochloride, dihydrate]","HP, NREM","cardiovascular variables; NREM sleep, mean ± SE",189 ± 3 ms
same,"Mean BP, NREM","cardiovascular variables; NREM sleep, mean ± SE",112 ± 17 mm Hg
same,"HP, REM","cardiovascular variables; REM sleep, mean ± SE",190 ± 3 ms
same,"Mean BP, REM","cardiovascular variables; REM sleep, mean ± SE",110 ± 17 mm Hg
same,"effect on cardiovascular variables (MBP and HP during W, NREM, REM sleep)",cardiovascular variables; p>0.1 for each variable,no effect on any cardiovascular variable
same,"HP, W","cardiovascular variables; wakefulness, mean ± SE",183 ± 3 ms
same,"Mean BP, W","cardiovascular variables; wakefulness, mean ± SE",113 mm Hg
same,"normalized minute ventilation during W, NREM and REM sleep",[1],significantly larger; also recorded: significant stimulation of ventilation during all behavioral states
